{"source": "the NIST ThermoML archive (doi:10.1016/j.jct.2017.03.006)", "details": "Liquid; for mass density: Vibrating tube method; for viscosity: Concentric cylinders viscometry", "note": "± gives the expanded uncertainty stated by the source.", "data": [{"smiles": "Cc1ccc(C)c(C)c1", "note": "[1,2,4-trimethylbenzene]", "values": [{"measurement": "mass density", "setting": "273.15 K, 100 kPa", "value": "891.7 ± 0.7", "unit": "kg/m3"}, {"measurement": "mass density", "setting": "273.15 K, 1000 kPa", "value": "892.3 ± 0.7", "unit": "kg/m3"}, {"measurement": "mass density", "setting": "273.15 K, 2000 kPa", "value": "892.9 ± 0.7", "unit": "kg/m3"}, {"measurement": "mass density", "setting": "273.15 K, 5000 kPa", "value": "894.6 ± 0.7", "unit": "kg/m3"}, {"measurement": "mass density", "setting": "273.15 K, 10000 kPa", "value": "897.4 ± 0.7", "unit": "kg/m3"}, {"measurement": "mass density", "setting": "273.15 K, 15000 kPa", "value": "900.2 ± 0.7", "unit": "kg/m3"}, {"measurement": "mass density", "setting": "273.15 K, 20000 kPa", "value": "902.8 ± 0.7", "unit": "kg/m3"}, {"measurement": "mass density", "setting": "273.15 K, 30000 kPa", "value": "908 ± 0.7", "unit": "kg/m3"}, {"measurement": "mass density", "setting": "273.15 K, 40000 kPa", "value": "912.9 ± 0.7", "unit": "kg/m3"}, {"measurement": "mass density", "setting": "273.15 K, 50000 kPa", "value": "917.5 ± 0.7", "unit": "kg/m3"}, {"measurement": "mass density", "setting": "273.15 K, 60000 kPa", "value": "921.9 ± 0.7", "unit": "kg/m3"}, {"measurement": "mass density", "setting": "273.15 K, 70000 kPa", "value": "926.2 ± 0.7", "unit": "kg/m3"}, {"measurement": "mass density", "setting": "273.15 K, 80000 kPa", "value": "930.3 ± 0.8", "unit": "kg/m3"}, {"measurement": "mass density", "setting": "273.15 K, 90000 kPa", "value": "934.2 ± 0.8", "unit": "kg/m3"}, {"measurement": "mass density", "setting": "273.15 K, 100000 kPa", "value": "938 ± 0.8", "unit": "kg/m3"}, {"measurement": "mass density", "setting": "273.15 K, 110000 kPa", "value": "941.7 ± 0.8", "unit": "kg/m3"}, {"measurement": "mass density", "setting": "273.15 K, 120000 kPa", "value": "945.2 ± 0.8", "unit": "kg/m3"}, {"measurement": "mass density", "setting": "273.15 K, 130000 kPa", "value": "948.6 ± 0.8", "unit": "kg/m3"}, {"measurement": "mass density", "setting": "273.15 K, 140000 kPa", "value": "952 ± 0.8", "unit": "kg/m3"}, {"measurement": "mass density", "setting": "283.15 K, 100 kPa", "value": "883.3 ± 0.7", "unit": "kg/m3"}, {"measurement": "mass density", "setting": "283.15 K, 1000 kPa", "value": "883.9 ± 0.7", "unit": "kg/m3"}, {"measurement": "mass density", "setting": "283.15 K, 2000 kPa", "value": "884.5 ± 0.7", "unit": "kg/m3"}, {"measurement": "mass density", "setting": "283.15 K, 5000 kPa", "value": "886.3 ± 0.7", "unit": "kg/m3"}, {"measurement": "mass density", "setting": "283.15 K, 10000 kPa", "value": "889.3 ± 0.7", "unit": "kg/m3"}, {"measurement": "mass density", "setting": "283.15 K, 15000 kPa", "value": "892.2 ± 0.7", "unit": "kg/m3"}, {"measurement": "mass density", "setting": "283.15 K, 20000 kPa", "value": "895 ± 0.7", "unit": "kg/m3"}, {"measurement": "mass density", "setting": "283.15 K, 30000 kPa", "value": "900.3 ± 0.7", "unit": "kg/m3"}, {"measurement": "mass density", "setting": "283.15 K, 40000 kPa", "value": "905.4 ± 0.7", "unit": "kg/m3"}, {"measurement": "mass density", "setting": "283.15 K, 50000 kPa", "value": "910.2 ± 0.7", "unit": "kg/m3"}, {"measurement": "mass density", "setting": "283.15 K, 60000 kPa", "value": "914.8 ± 0.7", "unit": "kg/m3"}, {"measurement": "mass density", "setting": "283.15 K, 70000 kPa", "value": "919.3 ± 0.8", "unit": "kg/m3"}, {"measurement": "mass density", "setting": "283.15 K, 80000 kPa", "value": "923.5 ± 0.8", "unit": "kg/m3"}, {"measurement": "mass density", "setting": "283.15 K, 90000 kPa", "value": "927.5 ± 0.8", "unit": "kg/m3"}, {"measurement": "mass density", "setting": "283.15 K, 100000 kPa", "value": "931.4 ± 0.8", "unit": "kg/m3"}, {"measurement": "mass density", "setting": "283.15 K, 110000 kPa", "value": "935.2 ± 0.8", "unit": "kg/m3"}, {"measurement": "mass density", "setting": "283.15 K, 120000 kPa", "value": "938.9 ± 0.8", "unit": "kg/m3"}, {"measurement": "mass density", "setting": "283.15 K, 130000 kPa", "value": "942.4 ± 0.8", "unit": "kg/m3"}, {"measurement": "mass density", "setting": "283.15 K, 140000 kPa", "value": "945.8 ± 0.8", "unit": "kg/m3"}, {"measurement": "viscosity", "setting": "293.15 K, 100 kPa", "value": "0.888 ± 0.019", "unit": "mPa·s"}, {"measurement": "mass density", "setting": "293.15 K, 100 kPa", "value": "875.1 ± 0.7", "unit": "kg/m3"}, {"measurement": "mass density", "setting": "293.15 K, 1000 kPa", "value": "875.7 ± 0.7", "unit": "kg/m3"}, {"measurement": "mass density", "setting": "293.15 K, 2000 kPa", "value": "876.3 ± 0.7", "unit": "kg/m3"}, {"measurement": "mass density", "setting": "293.15 K, 5000 kPa", "value": "878.2 ± 0.7", "unit": "kg/m3"}, {"measurement": "mass density", "setting": "293.15 K, 10000 kPa", "value": "881.4 ± 0.7", "unit": "kg/m3"}, {"measurement": "mass density", "setting": "293.15 K, 15000 kPa", "value": "884.4 ± 0.7", "unit": "kg/m3"}, {"measurement": "mass density", "setting": "293.15 K, 20000 kPa", "value": "887.3 ± 0.7", "unit": "kg/m3"}, {"measurement": "mass density", "setting": "293.15 K, 30000 kPa", "value": "892.9 ± 0.7", "unit": "kg/m3"}, {"measurement": "mass density", "setting": "293.15 K, 40000 kPa", "value": "898.2 ± 0.7", "unit": "kg/m3"}, {"measurement": "mass density", "setting": "293.15 K, 50000 kPa", "value": "903.2 ± 0.7", "unit": "kg/m3"}, {"measurement": "mass density", "setting": "293.15 K, 60000 kPa", "value": "908 ± 0.8", "unit": "kg/m3"}, {"measurement": "mass density", "setting": "293.15 K, 70000 kPa", "value": "912.6 ± 0.8", "unit": "kg/m3"}, {"measurement": "mass density", "setting": "293.15 K, 80000 kPa", "value": "916.9 ± 0.8", "unit": "kg/m3"}, {"measurement": "mass density", "setting": "293.15 K, 90000 kPa", "value": "921.1 ± 0.8", "unit": "kg/m3"}, {"measurement": "mass density", "setting": "293.15 K, 100000 kPa", "value": "925.1 ± 0.8", "unit": "kg/m3"}, {"measurement": "mass density", "setting": "293.15 K, 110000 kPa", "value": "929 ± 0.8", "unit": "kg/m3"}, {"measurement": "mass density", "setting": "293.15 K, 120000 kPa", "value": "932.8 ± 0.8", "unit": "kg/m3"}, {"measurement": "mass density", "setting": "293.15 K, 130000 kPa", "value": "936.4 ± 0.8", "unit": "kg/m3"}, {"measurement": "mass density", "setting": "293.15 K, 140000 kPa", "value": "939.9 ± 0.8", "unit": "kg/m3"}, {"measurement": "viscosity", "setting": "303.15 K, 100 kPa", "value": "0.779 ± 0.017", "unit": "mPa·s"}, {"measurement": "mass density", "setting": "303.15 K, 100 kPa", "value": "867 ± 0.7", "unit": "kg/m3"}, {"measurement": "mass density", "setting": "303.15 K, 1000 kPa", "value": "867.6 ± 0.7", "unit": "kg/m3"}, {"measurement": "mass density", "setting": "303.15 K, 2000 kPa", "value": "868.3 ± 0.7", "unit": "kg/m3"}, {"measurement": "mass density", "setting": "303.15 K, 5000 kPa", "value": "870.3 ± 0.7", "unit": "kg/m3"}, {"measurement": "mass density", "setting": "303.15 K, 10000 kPa", "value": "873.6 ± 0.7", "unit": "kg/m3"}, {"measurement": "mass density", "setting": "303.15 K, 15000 kPa", "value": "876.8 ± 0.7", "unit": "kg/m3"}, {"measurement": "mass density", "setting": "303.15 K, 20000 kPa", "value": "879.8 ± 0.7", "unit": "kg/m3"}, {"measurement": "mass density", "setting": "303.15 K, 30000 kPa", "value": "885.7 ± 0.7", "unit": "kg/m3"}, {"measurement": "mass density", "setting": "303.15 K, 40000 kPa", "value": "891.2 ± 0.7", "unit": "kg/m3"}, {"measurement": "mass density", "setting": "303.15 K, 50000 kPa", "value": "896.4 ± 0.7", "unit": "kg/m3"}, {"measurement": "mass density", "setting": "303.15 K, 60000 kPa", "value": "901.4 ± 0.8", "unit": "kg/m3"}, {"measurement": "mass density", "setting": "303.15 K, 70000 kPa", "value": "906.1 ± 0.8", "unit": "kg/m3"}, {"measurement": "mass density", "setting": "303.15 K, 80000 kPa", "value": "910.6 ± 0.8", "unit": "kg/m3"}, {"measurement": "mass density", "setting": "303.15 K, 90000 kPa", "value": "914.9 ± 0.8", "unit": "kg/m3"}, {"measurement": "mass density", "setting": "303.15 K, 100000 kPa", "value": "919.1 ± 0.8", "unit": "kg/m3"}, {"measurement": "mass density", "setting": "303.15 K, 110000 kPa", "value": "923.1 ± 0.8", "unit": "kg/m3"}, {"measurement": "mass density", "setting": "303.15 K, 120000 kPa", "value": "927 ± 0.8", "unit": "kg/m3"}, {"measurement": "mass density", "setting": "303.15 K, 130000 kPa", "value": "930.7 ± 0.8", "unit": "kg/m3"}, {"measurement": "mass density", "setting": "303.15 K, 140000 kPa", "value": "934.3 ± 0.8", "unit": "kg/m3"}]}]}
